From ChEMBL document CHEMBL4706534, “1,2,3-Triazole-containing hybrids with potential antibacterial activity against methicillin-resistant Staphylococcus aureus (MRSA)” (Eur J Med Chem, 2020)
Values after ≈ are worked out from the molar mass of the structure shown.

system: Staphylococcus aureus; assay: Antibacterial activity against Methicillin-resistant Staphylococcus aureus ATCC 33591; assay type: functional, organism-based

Question: How did the MIC turn out when `CN[C@H](CC(C)C)C(=O)N[C@@H]1Cc2ccc(c(Cl)c2)Oc2cc3cc(c2O[C@@H]2O[C@H](CO)[C@@H](O)[C@H](O)[C@H]2O[C@H]2C[C@](C)(N)[C@H](O)[C@H](C)O2)Oc2ccc(cc2Cl)[C@@H](O)[C@@H]2NC(=O)[C@H](NC(=O)[C@@H]3NC(=O)[C@H](CC(=O)O)NC1=O)c1ccc(O)c(c1)-c1c(O)cc(O)cc1[C@H](C(=O)NCCCCCc1cn(CCCCNC(=O)[C@@H]3NC(=O)[C@H]4NC(=O)[C@H](NC(=O)[C@@H]5NC(=O)[C@H](CC(=O)O)NC(=O)[C@H](NC(=O)[C@@H](CC(C)C)NC)Cc6ccc(c(Cl)c6)Oc6cc5cc(c6O[C@@H]5O[C@H](CO)[C@@H](O)[C@H](O)[C@H]5O[C@H]5C[C@](C)(N)[C@H](O)[C@H](C)O5)Oc5ccc(cc5Cl)[C@H]4O)c4ccc(O)c(c4)-c4c(O)cc(O)cc43)nn1)NC2=O` was run?
Answer: The MIC was 1.3 µg/mL (≈ 0.425 µM).

Question: For `CN[C@H](CC(C)C)C(=O)N[C@@H]1Cc2ccc(c(Cl)c2)Oc2cc3cc(c2O[C@@H]2O[C@H](CO)[C@@H](O)[C@H](O)[C@H]2O[C@H]2C[C@](C)(N)[C@H](O)[C@H](C)O2)Oc2ccc(cc2Cl)[C@@H](O)[C@@H]2NC(=O)[C@H](NC(=O)[C@@H]3NC(=O)[C@H](CC(=O)O)NC1=O)c1ccc(O)c(c1)-c1c(O)cc(O)cc1[C@H](C(=O)NCCCCCc1cn(CCCCCNC(=O)[C@@H]3NC(=O)[C@H]4NC(=O)[C@H](NC(=O)[C@@H]5NC(=O)[C@H](CC(=O)O)NC(=O)[C@H](NC(=O)[C@@H](CC(C)C)NC)Cc6ccc(c(Cl)c6)Oc6cc5cc(c6O[C@@H]5O[C@H](CO)[C@@H](O)[C@H](O)[C@H]5O[C@H]5C[C@](C)(N)[C@H](O)[C@H](C)O5)Oc5ccc(cc5Cl)[C@H]4O)c4ccc(O)c(c4)-c4c(O)cc(O)cc43)nn1)NC2=O`, which MIC is on record?
Answer: The MIC was 1.3 µg/mL (≈ 0.423 µM).

Question: With `CN[C@H](CC(C)C)C(=O)N[C@@H]1Cc2ccc(c(Cl)c2)Oc2cc3cc(c2O[C@@H]2O[C@H](CO)[C@@H](O)[C@H](O)[C@H]2O[C@H]2C[C@](C)(N)[C@H](O)[C@H](C)O2)Oc2ccc(cc2Cl)[C@@H](O)[C@@H]2NC(=O)[C@H](NC(=O)[C@@H]3NC(=O)[C@H](CC(=O)O)NC1=O)c1ccc(O)c(c1)-c1c(O)cc(O)cc1[C@H](C(=O)NCCCCCCn1cc(CCCNC(=O)[C@@H]3NC(=O)[C@H]4NC(=O)[C@H](NC(=O)[C@@H]5NC(=O)[C@H](CC(=O)O)NC(=O)[C@H](NC(=O)[C@@H](CC(C)C)NC)Cc6ccc(c(Cl)c6)Oc6cc5cc(c6O[C@@H]5O[C@H](CO)[C@@H](O)[C@H](O)[C@H]5O[C@H]5C[C@](C)(N)[C@H](O)[C@H](C)O5)Oc5ccc(cc5Cl)[C@H]4O)c4ccc(O)c(c4)-c4c(O)cc(O)cc43)nn1)NC2=O` as the compound, how does the MIC read?
Answer: The MIC was 1.3 µg/mL (≈ 0.425 µM).

Question: Which MIC does the source give for `CN[C@H](CC(C)C)C(=O)N[C@@H]1Cc2ccc(c(Cl)c2)Oc2cc3cc(c2O[C@@H]2O[C@H](CO)[C@@H](O)[C@H](O)[C@H]2O[C@H]2C[C@](C)(N)[C@H](O)[C@H](C)O2)Oc2ccc(cc2Cl)[C@@H](O)[C@@H]2NC(=O)[C@H](NC(=O)[C@@H]3NC(=O)[C@H](CC(=O)O)NC1=O)c1ccc(O)c(c1)-c1c(O)cc(O)cc1[C@H](C(=O)NCCCCCc1cn(CCNC(=O)[C@@H]3NC(=O)[C@H]4NC(=O)[C@H](NC(=O)[C@@H]5NC(=O)[C@H](CC(=O)O)NC(=O)[C@H](NC(=O)[C@@H](CC(C)C)NC)Cc6ccc(c(Cl)c6)Oc6cc5cc(c6O[C@@H]5O[C@H](CO)[C@@H](O)[C@H](O)[C@H]5O[C@H]5C[C@](C)(N)[C@H](O)[C@H](C)O5)Oc5ccc(cc5Cl)[C@H]4O)c4ccc(O)c(c4)-c4c(O)cc(O)cc43)nn1)NC2=O` here?
Answer: Its MIC is 1.3 µg/mL (≈ 0.429 µM).
